These results are taken from a melting point compilation (Tetko et al.; mined from patent text by program, amines drawn as free bases though some values may be those of a salt).

Some results are limits rather than exact numbers.

`CCC(CC)n1cc(C)nc(N2CCc3cc(OC)cc(C)c32)c1=O` displayed a melting point of 138 to 140 °C. With `CCCCCCCC(=N)NC(=O)Nc1ccc(Cl)cc1` the figure was 156 to 165 °C.

Turning to `Cc1cc(C(=O)OC2CC3C(=O)NC4(C(=O)NS(=O)(=O)C5CC5)CC4C=CCCCCCC(NC(=O)OC(C)(C)C)C(=O)N3C2)no1` (centres undefined), the melting point is 157 to 159 °C. The figure for `COc1ccc2c(c1)c(C1CCN(CCOc3ccccc3C(=O)O)CC1)cn2Cc1cccs1` is 150 to 151 °C; for `CCC(=O)N1C(=O)OC(C)(C)[C@H]1c1ccccc1` it is 60 °C; for `COCCNC(=O)c1cccc(-c2cccc3cc(Cc4cccc(C#N)c4)sc23)c1` it is 86 to 92 °C.

As to `COc1cc(OCc2ccccn2)ccc1/C=C/c1cc(/C=C/c2ccc3cc[nH]c3c2)n(C(C)O)n1` (centres undefined), the melting point was in the range of 94 to 97 °C. The figure for `CCSC(=O)Cc1csc(N)n1` is 76 to 77 °C. With `CCN(CC)c1nc(-c2ccc(OC)cc2)nc2sc(C#N)c(C)c12`, the melting point fell in the range of 154 to 156 °C. With `Cc1cc(Cl)ccc1C(=O)CN(C(=O)C(C)Cl)c1ccccc1` (centres undefined) the figure was 128 °C. Molecule `O=C1C(=O)c2ccccc2C2=C1SCC1(CCN(CC(O)COc3ccc(F)cc3)CC1)O2` (centres undefined) came in with a melting point of 174 to 175 °C. The figure for `COc1cc2nc(Cl)nc(N)c2c(OC)c1OC` is 138 to 140 °C; for `COc1cc(NC(=O)C(C#N)=CNc2ccc(OC)c(Br)c2)c(Cl)cc1Cl` it is more than 250 °C; for `C=CCOc1cc(NC(=O)OCC)c(F)cc1Br` it is 66 to 68 °C.

The molecule `COC(=O)c1ccc(CC(=O)Nc2cccc(/C=C/c3nc(C4CCC4)cs3)c2)cc1` had a melting point of 163 to 164 °C.

The molecule `NC(=O)c1nccn1C1Cc2cc(-n3ccnc3)ccc2C1=O` (centres undefined) displayed a melting point of 140 °C.

In the case of `COC(=O)C(C)(C)CCCOc1cc(C)c(OCc2ccccc2)cc1C`, the melting point is 75.5 to 76.5 °C.

For the molecule `CCc1cnc(N2CCN(C(=O)OC(C)(C)C)CC2)nc1`, the melting point lay within 67 to 68 °C. The figure for `CCn1c(COCc2ccccc2)nc(C(C)C)c1Sc1cccc(F)c1` is 88 to 90 °C; for `c1coc(-c2cc3[nH]ccn3n2)c1` it is 186 to 188 °C; for `O=C1CCC(c2ccc(CCCN3CCN(c4ccccc4)CC3)cc2)N1` (centres undefined) it is 130 °C. The figure for `CC(C)(C)c1cc(OCCCc2nnn[nH]2)cc(C(C)(C)C)c1O` is 179 to 180 °C; for `O=C1NC(=O)C(=Cc2ccc3c(c2)c2ccccc2n3Cc2ccc(-c3ccccc3)cc2)S1` it is more than 250 °C; for `CCCCCCC(=O)OCCOC(=O)NC1(C(=O)O)CC1` it is 113 °C. With `COc1ccc(CN2CCN(CCC(c3ccccc3)c3ccccc3)CC2)cc1OC` the figure was 98 to 104 °C. Molecule `CC(C)(C(=O)O)c1ccc(-c2ccc(Cl)cc2)s1` yielded a melting point of 146 to 148 °C. With `CCCCCCCCCCCCCCCCCCN=Cc1ccc(O)cc1` the figure was 101 °C. For the molecule `CN(C)CC(O)COc1ccccc1CCCCc1ccccc1C(N)=O` (centres undefined), the melting point lay within 149 to 151 °C. The molecule `O=C(CN1C(=O)C2(COc3cc4c(cc32)CCO4)c2cc(Cl)ccc21)Nc1ccccc1F` (centres undefined) had a melting point of 229 to 230 °C. On to `COc1ccc(C2=NN(c3ccc(C(C)(C)C)cc3)C(=O)[C@H]3CC=CC[C@@H]23)cc1OC` (relative stereo), for which the melting point fell in the range of 197 to 199 °C.

Molecule `O=C(O)CCNC(=O)[C@H](Cc1ccc(-c2ccccc2)cc1)NCP(=O)(Oc1ccccc1)Oc1ccccc1` displayed a melting point of 102 °C.

Molecule `N=C(N)Nc1nc(CSCCNC(=O)c2cccc(NS(=O)(=O)c3ccccc3)c2)cs1` returned a melting point of 175 to 178 °C. The figure for `CC(C)(C)c1cc(I)c2c(c1)CNC1(CCSCC1)O2` is 123 to 124 °C; for `O=S(=O)(c1ccccc1F)N1CCCC1c1ccc(F)cc1` (racemic) it is 91 °C; for `CNCC1(C2(O)CCCC2)Cc2cc3sccc3cc21` (centres undefined) it is 166 to 169 °C.

Turning to `O=Cc1ccnc2ccc(-c3ccccc3)cc12`, the melting point was 115 °C. Turning to `COc1cc2cc3c(Nc4ccc(Sc5nccn5C)c(Cl)c4)c(C#N)cnc3cc2cc1OCCCl`, the melting point lay within 275 to 280 °C. On to `Nc1nc2ccccc2c2c1nc(-c1ccccc1)n2CCCCNC(=O)c1cccnc1`, for which the melting point is 84.5 to 86.1 °C. The figure for `COCCN1CCN(c2cccc(-c3nc4cc(OC)cc(OC)c4c(=O)[nH]3)n2)CC1` is 99 to 101 °C; for `Cc1nc(N2CCN(Cc3ccncc3)C2=O)sc1C(=O)NCc1cccnc1` it is 233 to 235 °C.

Turning to `CSC1=CC2=CN(S)NN2C(SC)=N1`, the melting point lay within 250 to 252 °C. With `CCCCCCCCCCCCCCCCCCCCC(COC(C)=O)(COC(C)=O)NC(C)=O` the figure was 93 to 94 °C; with `CCN(c1cccc(-c2ccnc3c([N+](=O)[O-])cnn23)c1)S(=O)(=O)c1ccc(OC)cc1`, 209 to 211 °C; with `CCCOc1ccc2c(O)c([N+](=O)[O-])c(=O)oc2c1`, 151 to 152 °C.

For the molecule `COC(=O)C=C1CN2C(=O)N(c3cc(Cl)cc(Cl)c3)C(=O)C2(Cc2ccc(Br)cc2)C1` (centres undefined), the melting point was determined as 74.9 °C. `COC(=O)c1cc(S(=O)(=O)c2ccc(C)cc2)cc2c1OC(c1ccc(OC)cc1)(c1ccc(OC)cc1)O2` had a melting point of 79 to 82 °C. The molecule `NC(=O)C(=O)CCCCl` returned a melting point of 87 °C. The figure for `NC(=S)C1CCCc2c1ncc1c2CCCC1` (centres undefined) is 162 °C; for `CS(=O)(=O)Nc1cccc(CC2c3ccccc3CCc3ccccc32)c1` it is 149 °C; for `CSc1nc(-c2ccc(F)cc2)c(-c2ccnc(OC(C)C)c2)[nH]1` it is 141 °C. `CN(C)CCOc1cc(-c2ccccc2)on1` had a melting point of 28 to 29 °C. The figure for `OC1CCc2[nH]c3ccccc3c2C1` (centres undefined) is 140 °C; for `C[C@@H]1CN(C(=O)[C@@](C)(O)C(F)(F)F)[C@@H](C)CN1S(=O)(=O)c1ccc(C#N)cc1` it is 186 to 187 °C; for `COc1ccc(Cl)cc1C(=O)NCCc1ccc(-c2ccc(O)cc2)cc1` it is 169 °C. The figure for `CC(C)(C)c1cc(Cn2cncn2)cc(C(C)(C)C)c1O` is less than 30 °C; for `CCCCCCCCNC(=O)n1nc(Oc2c(Cl)cc(C(F)(F)F)cc2Cl)cc1C` it is 43 to 45 °C; for `CN1CCC(c2cc3c(F)cccc3c(=O)[nH]2)CC1` it is 220 to 222 °C. With `CC(C)CCCC(C)C1CCC2C3CCC4CC(OC(=O)c5ccccc5)CCC4(C)C3CCC12C` (centres undefined) the figure was 215 to 216 °C. The molecule `CCOC(=O)NCCOc1ccc(Oc2cc(F)cc(F)c2)cc1` gave a melting point of 54 to 56 °C. With `CC(C)(C(N)=O)c1ccc(OCc2ccccc2)cc1` the figure was 150 to 151 °C; with `COC(=O)c1cccc2c1CC(c1csc(-c3ccncc3)n1)C(=O)N2` (centres undefined), 230 to 231 °C. With `COc1cc(CO)ccc1OCc1csc(N2CCOCC2)n1` the figure was 94 to 95 °C. With `COc1cc(OC)c(N2CCCC2)cc1/C=C/C(=O)c1ccc(S(=O)(=O)Nc2cc(C)on2)cc1` the figure was 164 to 165 °C; with `ClCCCCOc1ccccc1/C=C/c1nc2ccccc2o1`, 92 to 93 °C.

As to `COC(=O)Nc1cc(C(C)(C)C)cc(NC(=O)Nc2ccc(-c3ccc(CN4CCOCC4)nc3)c3ccccc23)c1OC`, the melting point lay in the range of 192 to 193 °C. With `[O-][N+]1=Cc2cccc3c2C(C1)c1ccccc1CC3` (centres undefined), the melting point lay in the range of 156 to 158 °C. As to `Cn1cc(C=CC(=O)NCCO)c([N+](=O)[O-])n1`, the melting point fell in the range of 176 to 178 °C. With `O=C(O)COc1cc(F)c(F)cc1C(=O)NCc1ccc(Br)cc1F` the figure was 156 to 158 °C. The molecule `CC(=O)Nc1ccc(CNC(=O)c2ccccc2)cc1` returned a melting point of 175 to 177 °C. `O=c1n(CCCF)nnn1-c1ccc(Cl)cc1F`: the melting point was in the range of 62 to 63 °C. For `CC(C)OC(=O)N1CCC(c2nc3cc(-c4ccc(S(C)(=O)=O)cc4F)ccc3o2)CC1`, the melting point fell in the range of 96.5 to 101 °C. As for `CCCCCCCCCCCCCC(=O)c1c(O)cc(C)c(O)c1CCC`, the melting point was 62 °C.

Molecule `CC(=O)N1CCc2cc(S(=O)(=O)n3c(COC(C)(C)C(=O)O)cc4cc(Cl)ccc43)ccc21` returned a melting point of 142 to 144 °C. With `Nc1ncnc2c1c(-c1ccc(Oc3ccccc3)cc1)nn2C1CCC(=O)CC1` the figure was 203 to 205 °C; with `COc1ccc(-c2ncc(C(=O)O)s2)cc1OC1CCCC1`, 170 to 171 °C; with `O=C(c1cccs1)c1cnn2c(-c3ccc(F)c(Br)c3)ccnc12`, 74 to 76 °C. The figure for `O=C1NCN(c2ccccc2)C12CCN(CCCn1cnc3ccccc31)CC2` is 191 °C; for `Nc1nc(C(=Cc2c(Cl)ccc(Cl)c2Cl)C(=O)O)cs1` it is more than 210 °C; for `CC1Cc2ccc(Cl)cc2C(c2ccc([N+](=O)[O-])cc2)=NN1C(=S)Cl` (centres undefined) it is 210 to 214 °C. On to `COc1cc(C2(C)C(=O)Nc3ccccc3C2=O)ccc1O` (centres undefined), for which the melting point is 168 to 169 °C.

As to `Nc1ccccc1NC(=O)CCCCCCNC(=O)c1cn2c3c(cccc13)CCC2`, the melting point is 144 to 145 °C. As for `COc1cccc(C=Cc2ccccc2)c1O`, the melting point was 85 to 87 °C. `COCn1c(-c2ncc(CO)s2)cc2cccc(N(C)S(=O)(=O)c3cccs3)c21` had a melting point of 156 to 157 °C. As for `CC(=O)OCC(=O)C1(O)C(C)CC2C3CCC4=CC(=O)CCC4(C)C3=CCC21C` (centres undefined), the melting point is 197 to 201 °C. In turn, `CCCNC(=S)Nc1sccc1C(=O)OC` showed a melting point of 123 to 126 °C. In turn, `CN(CSC(C)(C)CC(C)(C)C)C(=O)Nc1cccc(C(F)(F)F)c1` returned a melting point of 52 to 54 °C. Regarding `CCC(=O)CCSc1cc(C(C)(C)C)c(O)c(C(C)(C)C)c1`, the melting point lay in the range of 76 to 79 °C. On to `Cc1cc(C(Cl)=C(Cl)Cl)cc(C(Cl)=C(Cl)Cl)c1`, for which the melting point was 41.4 to 44.6 °C. As to `CCOC(=O)C1C(C#N)C1(C)C` (centres undefined), the melting point was 69 °C.

By melting point is commonly meant the temperature, or range, at which the solid turns liquid.
